From patent publication US20080255085A1, “Novel Imidazo [4,5-b] Pyridine Derivatives as Inhibitors of Glycogen Synthase Kinase 3 for Use in the Treatment of Dementia and Neurodegenerative Disorders” (ASTRAZENECA AB, priority 2005, published 2008)
Counter-ions that a name gives are not always drawn.

Target: T1, GSK3β (Homo sapiens, UniProt P49841)
T1 construct: purchased Dundee University, UK
Assay: GSK3β Scintillation Proximity Assay (ATP competition)
Format: biochemical
Details: recombinant human GSK3; 1 μM ATP; Km of ATP 20 μM used to calculate Ki; 20 minutes at room temperature
Method: Determination of ATP Competition in Scintillation Proximity GSK3β Assay.
GSK3β Scintillation Proximity Assay.
The competition experiments were carried out in duplicate with 10 different concentrations of the inhibitors in clear-bottom microtiter plates (Wallac, Finland). A biotinylated peptide substrate, Biotin-Ala-Ala-Glu-Glu-Leu-Asp-Ser-Arg-Ala-Gly-Ser(PO3H2)-Pro-Gln-Leu (AstraZeneca, Lund), was added at a final concentration of 1 μM in an assay buffer containing 1 mU recombinant human GSK3 (Dundee University, UK), 12 mM morpholinepropanesulfonic acid (MOPS), pH 7.0, 0.3 mM EDTA, 0.01% β-mercaptorethanol, 0.004% Brij 35 (a […] detergent), 0.5% glycerol and 0.5 μg BSA/25 μl. The reaction was initiated by the addition of 0.04 μCi [γ-^33P]ATP (Amersham, UK) and unlabelled ATP at a final concentration of 1 μM and assay volume of 25 μl. After incubation for 20 minutes at room temperature, each reaction was terminated by the addition of 25 μl stop solution containing 5 mM EDTA, […] ATP, 0.1% Triton X-100 and 0.25 mg streptavidin coated Scintillation Proximity Assay (SPA) beads (Amersham, UK). After 6 hours the radioactivity was determined in a liquid scintillation counter (1450 MicroBeta Trilux, Wallac). The inhibition curves were analysed by non-linear regression using GraphPad Prism, USA. The Km value of ATP for GSK3β, used to calculate the inhibition constants (Ki) of the various compounds, was 20 μM.

T1 sequence (P49841 whole entry): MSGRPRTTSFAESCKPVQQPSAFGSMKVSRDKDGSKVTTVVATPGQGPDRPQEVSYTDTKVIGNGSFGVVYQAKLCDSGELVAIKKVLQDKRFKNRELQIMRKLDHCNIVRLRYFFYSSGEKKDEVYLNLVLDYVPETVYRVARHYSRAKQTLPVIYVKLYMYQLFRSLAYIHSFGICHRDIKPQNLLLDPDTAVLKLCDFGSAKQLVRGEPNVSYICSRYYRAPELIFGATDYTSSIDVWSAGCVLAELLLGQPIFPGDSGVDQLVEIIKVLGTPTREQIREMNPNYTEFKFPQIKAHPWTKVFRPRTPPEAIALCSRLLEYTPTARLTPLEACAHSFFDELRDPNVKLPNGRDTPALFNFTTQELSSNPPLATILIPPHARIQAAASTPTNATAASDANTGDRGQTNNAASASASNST

SMILES	Ki [nM]
COc1cccc(-c2ccnc3[nH]c(-c4ccc(S(=O)(=O)N5CCN(C)CC5)cc4)nc23)c1 [Example 2, 7-(3-Methoxyphenyl)-2-{4-[(4-methylpiperazin-1-yl)sulfonyl]phenyl}-3H-imidazo[4,5-b]pyridine hydrochloride]	124
COc1ccc(-c2ccnc3[nH]c(-c4ccc(CN5CCCCC5)cc4)nc23)cc1 [Example 6, 7-(4-Methoxyphenyl)-2-[4-(piperidin-1-ylmethyl)phenyl]-3H-imidazo[4,5-b]pyridine hydrochloride]	31
COc1ccc(-c2ccnc3[nH]c(-c4ccc(C(=O)NCCN5CCOCC5)cc4)nc23)cc1 [Example 7, 4-[7-(4-Methoxyphenyl)-3H-imidazo[4,5-b]pyridin-2-yl]-N-(2-morpholin-4-ylethyl)benzamide hydrochloride]	44
CN1CCN(C(=O)c2ccc(-c3nc4c(-c5cccnc5)ccnc4[nH]3)cc2)CC1 [Example 9, 2-{4-[(4-Methylpiperazin-1-yl)carbonyl]phenyl}-7-pyridin-3-yl-3H-imidazo[4,5-b]pyridine hydrochloride]	254
